PubChem BioAssay (NCI)
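Five concentrations, 48 hours, 96-well plates. GI50 = concentration required for 50% inhibition of growth. TGI is the concentration that stops growth completely.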

What was measured:
Assay in all cases: NCI-60 cell line screen, 48 h
CAKI-1 renal = test system: CAKI-1 renal
HS 578T breast = test system: HS 578T breast
T-47D breast = test system: T-47D breast
SN12C renal = test system: SN12C renal
EKVX NSCLC = test system: EKVX NSCLC
OVCAR-4 ovarian = test system: OVCAR-4 ovarian
RXF 393 renal = test system: RXF 393 renal
U251 CNS = test system: U251 CNS
UACC-62 melanoma = test system: UACC-62 melanoma
HCT-15 colon = test system: HCT-15 colon

CN1CC[C@@H](c2c(O)cc(O)c3c(=O)cc(-c4ccc(C(F)(F)F)cc4Cl)oc23)[C@@H]1CO
GI50 (CAKI-1 renal): 14.7 µM
TGI (CAKI-1 renal): 39.8 µM
GI50 (HS 578T breast): 11.8 µM
TGI (HS 578T breast): 33.6 µM
GI50 (T-47D breast): 14.5 µM
TGI (T-47D breast): 50.4 µM
GI50 (SN12C renal): 16.4 µM
TGI (SN12C renal): 44.6 µM
GI50 (EKVX NSCLC): 13.9 µM
TGI (EKVX NSCLC): 37.5 µM
GI50 (OVCAR-4 ovarian): 23.6 µM
TGI (OVCAR-4 ovarian): 83.2 µM
GI50 (RXF 393 renal): 10.9 µM
TGI (RXF 393 renal): 24.8 µM
GI50 (U251 CNS): 16.7 µM
TGI (U251 CNS): 33.9 µM
GI50 (UACC-62 melanoma): 14.6 µM
TGI (UACC-62 melanoma): 32.8 µM
GI50 (HCT-15 colon): 20.9 µM
TGI (HCT-15 colon): 78.2 µM

Oc1ccc(Nc2c3ccccc3nc3occ(Cl)c23)cc1
GI50 (CAKI-1 renal): 3.95 µM
TGI (CAKI-1 renal): > 100 µM
GI50 (HS 578T breast): 5.62 µM
TGI (HS 578T breast): > 100 µM
GI50 (T-47D breast): 6.49 µM
TGI (T-47D breast): > 100 µM
GI50 (SN12C renal): 2.89 µM
TGI (SN12C renal): 26.4 µM
GI50 (EKVX NSCLC): 14.8 µM
TGI (EKVX NSCLC): > 100 µM
GI50 (OVCAR-4 ovarian): 7.44 µM
TGI (OVCAR-4 ovarian): > 100 µM
GI50 (RXF 393 renal): 3.83 µM
TGI (RXF 393 renal): 70.3 µM
GI50 (U251 CNS): 5.63 µM
TGI (U251 CNS): > 100 µM
GI50 (UACC-62 melanoma): 2.4 µM
TGI (UACC-62 melanoma): 10.4 µM
GI50 (HCT-15 colon): 4.77 µM
TGI (HCT-15 colon): > 100 µM

COc1cc(/C=C/C(=O)c2cccc(-n3cc(-c4ccc(Cl)cc4)[nH]c3=O)c2)ccc1O
GI50 (CAKI-1 renal): 5.02 µM
TGI (CAKI-1 renal): 44.9 µM
GI50 (HS 578T breast): 3.78 µM
TGI (HS 578T breast): 26.9 µM
GI50 (T-47D breast): 3.39 µM
TGI (T-47D breast): 17.8 µM
GI50 (SN12C renal): 2.81 µM
TGI (SN12C renal): > 60.9 µM
GI50 (EKVX NSCLC): 6.6 µM
TGI (EKVX NSCLC): > 95.2 µM
GI50 (OVCAR-4 ovarian): 3.11 µM
TGI (OVCAR-4 ovarian): > 23.7 µM
GI50 (RXF 393 renal): 2.99 µM
TGI (RXF 393 renal): 9.13 µM
GI50 (U251 CNS): 2.19 µM
TGI (U251 CNS): 6.01 µM
GI50 (UACC-62 melanoma): 2.5 µM
TGI (UACC-62 melanoma): 9.59 µM
GI50 (HCT-15 colon): 1.8 µM
TGI (HCT-15 colon): 7.07 µM

COC(=O)C1=CN(CC2=CC(=O)C(C)=CC2=O)C=C(C(=O)OC)C1c1cccc(OC)c1
GI50 (CAKI-1 renal): 2.45 µM
TGI (CAKI-1 renal): 5.61 µM
GI50 (HS 578T breast): 8.66 µM
TGI (HS 578T breast): 44.9 µM
GI50 (T-47D breast): 8.26 µM
TGI (T-47D breast): > 100 µM
GI50 (SN12C renal): 22.9 µM
TGI (SN12C renal): > 60.5 µM
GI50 (EKVX NSCLC): 12.2 µM
TGI (EKVX NSCLC): 27.2 µM
GI50 (OVCAR-4 ovarian): 25.7 µM
TGI (OVCAR-4 ovarian): > 100 µM
GI50 (RXF 393 renal): 17.4 µM
TGI (RXF 393 renal): 39.8 µM
GI50 (U251 CNS): 8.47 µM
TGI (U251 CNS): 30.5 µM
GI50 (UACC-62 melanoma): 13.6 µM
TGI (UACC-62 melanoma): 29.4 µM
GI50 (HCT-15 colon): 16.6 µM
TGI (HCT-15 colon): 39 µM

O=c1[nH]c2ccc(O)cc2o1
TGI (CAKI-1 renal): > 100 µM
TGI (HS 578T breast): > 100 µM
TGI (T-47D breast): > 100 µM
TGI (SN12C renal): > 100 µM
TGI (EKVX NSCLC): > 100 µM
TGI (OVCAR-4 ovarian): > 100 µM
TGI (RXF 393 renal): > 100 µM
TGI (U251 CNS): > 100 µM
TGI (UACC-62 melanoma): > 100 µM
TGI (HCT-15 colon): > 100 µM

COc1ccc(Cn2c(N)c(S(=O)(=O)c3ccc(Cl)cc3)c3nc(C#N)c(C#N)nc32)cc1
GI50 (CAKI-1 renal): 21.9 µM
TGI (CAKI-1 renal): > 50 µM
GI50 (HS 578T breast): 14.6 µM
TGI (HS 578T breast): > 50 µM
GI50 (T-47D breast): > 50 µM
TGI (T-47D breast): > 50 µM
GI50 (SN12C renal): 1.45 µM
TGI (SN12C renal): 17.9 µM
GI50 (EKVX NSCLC): > 50 µM
TGI (EKVX NSCLC): > 50 µM
GI50 (OVCAR-4 ovarian): 25.2 µM
TGI (OVCAR-4 ovarian): > 50 µM
GI50 (RXF 393 renal): 1.45 µM
TGI (RXF 393 renal): 5.37 µM
GI50 (U251 CNS): 10.1 µM
TGI (U251 CNS): 30.3 µM
GI50 (UACC-62 melanoma): 4.36 µM
TGI (UACC-62 melanoma): 17.8 µM
GI50 (HCT-15 colon): > 50 µM
TGI (HCT-15 colon): > 50 µM

COC12C(COC(N)=O)C3=C(C(=O)C(C)=C(N)C3=O)N1CC1C2N1C (stereo not given)
TGI (CAKI-1 renal): 22 µM
TGI (HS 578T breast): 75.7 µM
TGI (T-47D breast): 182 µM
TGI (SN12C renal): 29.5 µM
TGI (EKVX NSCLC): 60.3 µM
TGI (OVCAR-4 ovarian): 28.1 µM
TGI (RXF 393 renal): 28.7 µM
TGI (U251 CNS): 22.6 µM
TGI (UACC-62 melanoma): 11.1 µM
TGI (HCT-15 colon): 55.1 µM
